Data: publication PMC5218480 (PLoS ONE, 2017)

Tested on: MV-4-11 cells
Test: Gene expression microarray analysis (Affymetrix PrimeView) and GSEA
Type: cell-based, human
Set-up: RFU PODN (11730768_x_at) / Fold change /veh PODN (11730768_x_at) / RFU LINC00158 (11744669_a_at) / Fold change /veh LINC00158 (11744669_a_at) / RFU DUSP10 (11751237_a_at) / Fold change /veh DUSP10 (11751237_a_at) / RFU ID3 (11757404_x_at) / Fold change /veh ID3 (11757404_x_at) / RFU PLEKHG5 (11737974_s_at) / Fold change /veh PLEKHG5 (11737974_s_at) / RFU LRRC4B (11730491_at) / Fold change /veh LRRC4B (11730491_at) / RFU GIMAP4 (11747438_a_at) / Fold change /veh GIMAP4 (11747438_a_at) / RFU KRT8 (11758183_x_at) / Fold change /veh KRT8 (11758183_x_at) / RFU CNN1 (11734310_a_at) / Fold change /veh CNN1 (11734310_a_at) / RFU VPS37D (11726825_at) / Fold change /veh VPS37D (11726825_at) / RFU C10orf10 (11716522_x_at) / Fold change /veh C10orf10 (11716522_x_at) / RFU KIR2DL2 /// KIR2DL4 /// KIR2DL5A /// KIR2DL5B /// KIR2DS1 /// KIR2DS2 /// KIR2DS3 /// KIR2DS4 /// KIR3DL3 /// KIR3DL3 /// KIR3DS1 (11738374_at) / Fold change /veh KIR2DL2 /// KIR2DL4 /// KIR2DL5A /// KIR2DL5B /// KIR2DS1 /// KIR2DS2 /// KIR2DS3 /// KIR2DS4 /// KIR3DL3 /// KIR3DL3 /// KIR3DS1 (11738374_at) / RFU C1QL1 (11718748_at) / Fold change /veh C1QL1 (11718748_at) / RFU TMPRSS4 (11747572_a_at) / Fold change /veh TMPRSS4 (11747572_a_at) / RFU HAMP (11756126_x_at) / Fold change /veh HAMP (11756126_x_at) / RFU RNFT2 (11725882_a_at) / Fold change /veh RNFT2 (11725882_a_at) / RFU NR4A2 (11747474_a_at) / Fold change /veh NR4A2 (11747474_a_at) / RFU ABCC12 (11746883_a_at) / Fold change /veh ABCC12 (11746883_a_at) / RFU TMEM136 (11760407_x_at) / Fold change /veh TMEM136 (11760407_x_at) / RFU CLDN22 /// WWC2 (11732394_at) / Fold change /veh CLDN22 /// WWC2 (11732394_at) / RFU HLA-DPB1 (11760878_x_at) / Fold change /veh HLA-DPB1 (11760878_x_at) / RFU SPINT1 (11716480_a_at) / Fold change /veh SPINT1 (11716480_a_at) / RFU GAP43 (11754022_s_at) / Fold change /veh GAP43 (11754022_s_at) / RFU A4GNT (11735810_at) / Fold change /veh A4GNT (11735810_at) / RFU PRB3 (11715151_x_at) / Fold change /veh PRB3 (11715151_x_at) / RFU TUBB4B (11761932_at) / Fold change /veh TUBB4B (11761932_at) / RFU CAPN14 (11732068_a_at) / Fold change /veh CAPN14 (11732068_a_at) / RFU TMCC2 (11721928_a_at) / Fold change /veh TMCC2 (11721928_a_at) / RFU IRGQ (11745062_a_at) / Fold change /veh IRGQ (11745062_a_at) / RFU FAM174B (11720279_a_at) / Fold change /veh FAM174B (11720279_a_at) / RFU TMPRSS4 (11748680_a_at) / Fold change /veh TMPRSS4 (11748680_a_at) / RFU FAM212B (11763350_a_at) / Fold change /veh FAM212B (11763350_a_at) / RFU PLEKHG5 (11743358_a_at) / Fold change /veh PLEKHG5 (11743358_a_at) / RFU ZSCAN30 (11745921_a_at) / Fold change /veh ZSCAN30 (11745921_a_at) / RFU CMKLR1 (11741424_a_at) / Fold change /veh CMKLR1 (11741424_a_at) / RFU LOC101060620 /// MAPK8IP1 (11723275_at) / Fold change /veh LOC101060620 /// MAPK8IP1 (11723275_at) / RFU SPTSSB (11747773_x_at) / Fold change /veh SPTSSB (11747773_x_at) / RFU PRSS12 (11739890_at) / Fold change /veh PRSS12 (11739890_at) / RFU BIN1 (11741810_x_at) / Fold change /veh BIN1 (11741810_x_at) / RFU WNT11 (11732464_a_at) / Fold change /veh WNT11 (11732464_a_at) / RFU C10orf10 (11716521_a_at) / Fold change /veh C10orf10 (11716521_a_at) / RFU C5orf56 (11738089_at) / Fold change /veh C5orf56 (11738089_at) / RFU CYB561 (11721691_x_at) / Fold change /veh CYB561 (11721691_x_at) / RFU ANKRD19P (11752326_a_at) / Fold change /veh ANKRD19P (11752326_a_at) / RFU OR2T12 /// OR2T33 /// OR2T8 (11738714_s_at) / Fold change /veh OR2T12 /// OR2T33 /// OR2T8 (11738714_s_at) / RFU VCAN (11748164_a_at) / Fold change /veh VCAN (11748164_a_at) / RFU JSRP1 (11732532_at) / Fold change /veh JSRP1 (11732532_at) / RFU KRTAP10-11 (11738290_x_at) / Fold change /veh KRTAP10-11 (11738290_x_at) / RFU MYO3A (11730013_a_at) / Fold change /veh MYO3A (11730013_a_at) / RFU EBF3 (11725865_a_at) / Fold change /veh EBF3 (11725865_a_at) / RFU CAMK2N1 (11719241_x_at) / Fold change /veh CAMK2N1 (11719241_x_at) / RFU C5orf56 (11738088_a_at) / Fold change /veh C5orf56 (11738088_a_at) / RFU OLFML3 (11715873_a_at) / Fold change /veh OLFML3 (11715873_a_at) / RFU LOC100653217 /// NTM (11731650_a_at) / Fold change /veh LOC100653217 /// NTM (11731650_a_at) / RFU MAPK11 (11762145_a_at) / Fold change /veh MAPK11 (11762145_a_at) / RFU FIZ1 (11724087_x_at) / Fold change /veh FIZ1 (11724087_x_at) / RFU OASL (11726364_x_at) / Fold change /veh OASL (11726364_x_at) / RFU SOX15 (11748057_x_at) / Fold change /veh SOX15 (11748057_x_at) / RFU CD79A (11719716_a_at) / Fold change /veh CD79A (11719716_a_at) / RFU HIST1H1D (11736915_at) / Fold change /veh HIST1H1D (11736915_at) / RFU CASKIN2 (11723855_a_at) / Fold change /veh CASKIN2 (11723855_a_at) / RFU LOC730098 (11760151_x_at) / Fold change /veh LOC730098 (11760151_x_at) / RFU OR4N2 (11742367_at) / Fold change /veh OR4N2 (11742367_at) / RFU PRRT2 (11749266_a_at) / Fold change /veh PRRT2 (11749266_a_at) / RFU SNX32 (11753110_a_at) / Fold change /veh SNX32 (11753110_a_at) / RFU CDHR5 (11726645_a_at) / Fold change /veh CDHR5 (11726645_a_at) / RFU RCAN1 (11760418_a_at) / Fold change /veh RCAN1 (11760418_a_at) / RFU FAM167A (11723789_a_at) / Fold change /veh FAM167A (11723789_a_at) / RFU FAM26E (11764081_at) / Fold change /veh FAM26E (11764081_at) / RFU ISYNA1 (11749810_s_at) / Fold change /veh ISYNA1 (11749810_s_at) / RFU ACY1 (11761880_at) / Fold change /veh ACY1 (11761880_at) / RFU 11764098_at / Fold change /veh 11764098_at / RFU SAMD14 (11745864_x_at) / Fold change /veh SAMD14 (11745864_x_at) / RFU NPB (11741838_a_at) / Fold change /veh NPB (11741838_a_at) / RFU TMPRSS6 (11731388_a_at) / Fold change /veh TMPRSS6 (11731388_a_at) / RFU KRTAP10-2 (11738614_at) / Fold change /veh KRTAP10-2 (11738614_at) / RFU ARHGAP8 /// PRR5-ARHGAP8 (11727945_x_at) / Fold change /veh ARHGAP8 /// PRR5-ARHGAP8 (11727945_x_at) / RFU KRTAP5-7 /// NADSYN1 (11734609_at) / Fold change /veh KRTAP5-7 /// NADSYN1 (11734609_at) / RFU RASL12 (11751679_a_at) / Fold change /veh RASL12 (11751679_a_at) / RFU CDKN2B (11736163_a_at) / Fold change /veh CDKN2B (11736163_a_at) / RFU PRF1 (11729649_at) / Fold change /veh PRF1 (11729649_at) / RFU, ZNF638 /// ZNF638-IT1 / Fold change vs veh, ZNF638 /// ZNF638-IT1 / RFU, PANK3 / Fold change vs veh, PANK3 / RFU, SH3YL1 / Fold change vs veh, SH3YL1 / RFU, ZEB2 / Fold change vs veh, ZEB2 / RFU, NRIP1 / Fold change vs veh, NRIP1 / RFU, PTTG1IP / Fold change vs veh, PTTG1IP / RFU, CAPN2 / Fold change vs veh, CAPN2 / RFU, MED14 / Fold change vs veh, MED14 / RFU, SNORA58 / Fold change vs veh, SNORA58 / RFU, C1orf63 / Fold change vs veh, C1orf63 / RFU, LRRFIP1 / Fold change vs veh, LRRFIP1 / RFU, NDUFAF7 / Fold change vs veh, NDUFAF7 / RFU, SLC12A2 / Fold change vs veh, SLC12A2 / RFU, IBTK / Fold change vs veh, IBTK / RFU, ESF1 / Fold change vs veh, ESF1 / Fold change vs veh, TMEM50B / RFU, TAOK1 / Fold change vs veh, TAOK1 / RFU, ACBD3 / Fold change vs veh, ACBD3 / RFU, TMA16 / Fold change vs veh, TMA16 / RFU, RWDD3 / Fold change vs veh, RWDD3 / RFU, BCAT1 / Fold change vs veh, BCAT1 / RFU, EDEM3 / Fold change vs veh, EDEM3 / RFU, TMEM33 / Fold change vs veh, TMEM33 / RFU, WDR75 / Fold change vs veh, WDR75 / RFU, AHCTF1 / Fold change vs veh, AHCTF1 / RFU, TFRC / Fold change vs veh, TFRC / RFU, ZDHHC17 / Fold change vs veh, ZDHHC17 / RFU, NOM1 / Fold change vs veh, NOM1 / RFU, ARL8B / Fold change vs veh, ARL8B / RFU, ZBTB11 / Fold change vs veh, ZBTB11 / RFU, TAMM41 / Fold change vs veh, TAMM41 / RFU, KIAA1704 /// LOC100996395 / Fold change vs veh, KIAA1704 /// LOC100996395 / RFU, ING1 / Fold change vs veh, ING1 / RFU, TRMT61B / Fold change vs veh, TRMT61B / RFU, FUBP3 / Fold change vs veh, FUBP3 / RFU, TP53 / Fold change vs veh, TP53 / RFU, TNKS2 / Fold change vs veh, TNKS2 / RFU, ZFP14 / Fold change vs veh, ZFP14 / RFU, ACTR2 / Fold change vs veh, ACTR2 / RFU, PPP3R1 / Fold change vs veh, PPP3R1 / RFU, PIK3R1 / Fold change vs veh, PIK3R1 / RFU, HNRNPA1 / Fold change vs veh, HNRNPA1 / RFU, RNF170 / Fold change vs veh, RNF170 / RFU, ZNF28 / Fold change vs veh, ZNF28 / RFU, RNGTT / Fold change vs veh, RNGTT / RFU, OGT / Fold change vs veh, OGT / RFU, BRD1 / Fold change vs veh, BRD1 / RFU, MARS / Fold change vs veh, MARS / RFU, ZNF655 / Fold change vs veh, ZNF655 / RFU, FAHD1 / Fold change vs veh, FAHD1 / RFU, BDP1 / Fold change vs veh, BDP1 / RFU, LRRCC1 / Fold change vs veh, LRRCC1 / RFU, ARID1A / Fold change vs veh, ARID1A / RFU, ZNF146 / Fold change vs veh, ZNF146 / RFU, ZNF330 / Fold change vs veh, ZNF330 / RFU, GPN3 / Fold change vs veh, GPN3 / RFU, C9orf123 / Fold change vs veh, C9orf123 / RFU, N4BP2L2 / Fold change vs veh, N4BP2L2 / RFU, ARFIP1 / Fold change vs veh, ARFIP1 / RFU, FAM179B / Fold change vs veh, FAM179B / RFU, BCL10 / Fold change vs veh, BCL10 / RFU, UHRF1BP1L / Fold change vs veh, UHRF1BP1L / RFU, BET1 / Fold change vs veh, BET1 / RFU, CNOT2 / Fold change vs veh, CNOT2 / RFU, ZNF268 / Fold change vs veh, ZNF268 / Fold change vs veh, ZNF507 / RFU, DGCR2 / Fold change vs veh, DGCR2 / RFU, WDSUB1 / Fold change vs veh, WDSUB1 / Fold change vs veh, HSP90B1 /// MIR3652 / RFU, ADSS / Fold change vs veh, ADSS / RFU, GK / Fold change vs veh, GK / RFU, ZNF148 / Fold change vs veh, ZNF148 / RFU, TAF9 / Fold change vs veh, TAF9 / RFU, SLC1A5 / Fold change vs veh, SLC1A5 / RFU, SLMO2 / Fold change vs veh, SLMO2 / RFU, ABCC4 / Fold change vs veh, ABCC4 / RFU, LOC101060439 /// RAP1B / Fold change vs veh, LOC101060439 /// RAP1B / RFU, RFX7 / Fold change vs veh, RFX7 / RFU, GTPBP10 / Fold change vs veh, GTPBP10 / RFU, CNEP1R1 / Fold change vs veh, CNEP1R1 / RFU, BIVM-ERCC5 /// ERCC5 / Fold change vs veh, BIVM-ERCC5 /// ERCC5 / RFU, ILF3 / Fold change vs veh, ILF3 / RFU 11762660_at / Fold change /veh 11762660_at / RFU VCAN (11757783_s_at) / Fold change /veh VCAN (11757783_s_at) / RFU DDX43 (11728927_at) / Fold change /veh DDX43 (11728927_at) / RFU KRT8 (11758188_x_at) / Fold change /veh KRT8 (11758188_x_at) / RFU NKD1 (11759106_at) / Fold change /veh NKD1 (11759106_at) / RFU SRD5A1 (11742802_a_at) / Fold change /veh SRD5A1 (11742802_a_at) / RFU TPSAB1 /// TPSB2 (11721975_s_at) / Fold change /veh TPSAB1 /// TPSB2 (11721975_s_at) / RFU GSTM3 (11746129_a_at) / Fold change /veh GSTM3 (11746129_a_at) / RFU IL23R (11737362_x_at) / Fold change /veh IL23R (11737362_x_at) / RFU TMEM51 (11727254_a_at) / Fold change /veh TMEM51 (11727254_a_at) / RFU PIWIL2 (11732686_x_at) / Fold change /veh PIWIL2 (11732686_x_at) / RFU ORM1 (11744905_x_at) / Fold change /veh ORM1 (11744905_x_at) / RFU CCDC152 (11743942_at) / Fold change /veh CCDC152 (11743942_at) / RFU ECM1 (11717891_a_at) / Fold change /veh ECM1 (11717891_a_at) / RFU IL23R (11748794_a_at) / Fold change /veh IL23R (11748794_a_at) / RFU TNFAIP8L3 (11732012_x_at) / Fold change /veh TNFAIP8L3 (11732012_x_at) / RFU MBOAT4 (11741988_at) / Fold change /veh MBOAT4 (11741988_at) / RFU 11764193_at / Fold change /veh 11764193_at / RFU TMEM53 (11763286_at) / Fold change /veh TMEM53 (11763286_at) / RFU MAGEB2 (11727129_at) / Fold change /veh MAGEB2 (11727129_at) / RFU TMEM200A (11744735_a_at) / Fold change /veh TMEM200A (11744735_a_at) / RFU CCDC152 (11751479_a_at) / Fold change /veh CCDC152 (11751479_a_at) / RFU FAM211A (11726209_a_at) / Fold change /veh FAM211A (11726209_a_at) / RFU RGS16 (11746705_a_at) / Fold change /veh RGS16 (11746705_a_at) / RFU VCAN (11755009_s_at) / Fold change /veh VCAN (11755009_s_at) / RFU RHOB (11743442_s_at) / Fold change /veh RHOB (11743442_s_at) / RFU RGS16 (11720943_a_at) / Fold change /veh RGS16 (11720943_a_at) / RFU RGS16 (11720944_at) / Fold change /veh RGS16 (11720944_at) / RFU, VPS4B / Fold change vs veh, VPS4B / RFU, CREB1 / Fold change vs veh, CREB1 / RFU, DNAJC13 / Fold change vs veh, DNAJC13 / RFU, GNAQ / Fold change vs veh, GNAQ / RFU, CDK5R1 / Fold change vs veh, CDK5R1 / RFU, ZRANB3 / Fold change vs veh, ZRANB3 / RFU, CUL4A / Fold change vs veh, CUL4A / RFU, CCNY / Fold change vs veh, CCNY / RFU, UFL1 / Fold change vs veh, UFL1 / RFU, COG3 / Fold change vs veh, COG3 / RFU, DIAPH2 / Fold change vs veh, DIAPH2 / RFU, SKA2 / Fold change vs veh, SKA2 / RFU, AFF3 / Fold change vs veh, AFF3 / RFU, LMF1 / Fold change vs veh, LMF1 / RFU, IPO11 / Fold change vs veh, IPO11 / RFU, DFFB / Fold change vs veh, DFFB / RFU, FOXP1 / Fold change vs veh, FOXP1 / RFU, CARD8 / Fold change vs veh, CARD8 / RFU, STRN3 / Fold change vs veh, STRN3 / RFU, ADK / Fold change vs veh, ADK / RFU, RASSF2 / Fold change vs veh, RASSF2 / RFU, WIPF1 / Fold change vs veh, WIPF1 / RFU, LARP1B / Fold change vs veh, LARP1B / RFU, RASA1 / Fold change vs veh, RASA1 / RFU, RB1 / Fold change vs veh, RB1 / RFU, PPFIA1 / Fold change vs veh, PPFIA1 / RFU, MAT2A / Fold change vs veh, MAT2A / RFU, CCT5 / Fold change vs veh, CCT5 / RFU, WDR92 / Fold change vs veh, WDR92 / RFU, CUX1 / Fold change vs veh, CUX1 / RFU, TTC7A / Fold change vs veh, TTC7A / RFU, TMEM135 / Fold change vs veh, TMEM135 / RFU, DEPTOR / Fold change vs veh, DEPTOR / RFU, CPM / Fold change vs veh, CPM / RFU, DNAJB6 / Fold change vs veh, DNAJB6 / RFU, CACNA2D3 / Fold change vs veh, CACNA2D3 / RFU, DTX4 / Fold change vs veh, DTX4 / RFU, TFCP2 / Fold change vs veh, TFCP2 / RFU, GMCL1 /// GMCL1P1 / Fold change vs veh, GMCL1 /// GMCL1P1 / RFU, AEBP2 / Fold change vs veh, AEBP2 / RFU, SNHG1 /// SNORD22 /// SNORD25 /// SNORD26 /// SNORD27 /// SNORD28 /// SNORD29 /// SNORD31 / Fold change vs veh, SNHG1 /// SNORD22 /// SNORD25 /// SNORD26 /// SNORD27 /// SNORD28 /// SNORD29 /// SNORD31 / Fold change (Aza/veh), C12orf56 (ProbeSet 11735607_a_at) / Fold change (ACY-1035/veh), C12orf56 (ProbeSet 11735607_a_at) / Fold change (Aza/veh), FGFR1OP (ProbeSet 11751329_s_at) / Fold change (ACY-1035/veh), FGFR1OP (ProbeSet 11751329_s_at) / Fold change (Aza/veh), VPS36 (ProbeSet 11739960_a_at) / Fold change (ACY-1035/veh), VPS36 (ProbeSet 11739960_a_at) / RFU SYPL1 (11715823_x_at) / Fold change /veh SYPL1 (11715823_x_at) / RFU IGFBP7 (11715501_s_at) / Fold change /veh IGFBP7 (11715501_s_at) / RFU REEP3 (11722064_at) / Fold change /veh REEP3 (11722064_at) / RFU IGLL1 (11728026_x_at) / Fold change /veh IGLL1 (11728026_x_at): dose or concentration left out as unconfirmed
Settings: ProbeSet 11741311_a_at; LIST B

Nc1ccc(-c2cccs2)cc1NC(=O)c1ccc2c(c1)cc(C1CC1)n2CCN1CCOCC1 [ACY-1035]
Fold change vs veh, ZNF655: 0.99
